These results are taken from article PMC9115881, “Penicillin Derivatives Inhibit the SARS-CoV-2 Main Protease by Reaction with Its Nucleophilic Cysteine” (Journal of Medicinal Chemistry, 2022).

Where two headings read alike, the source gives them in different places. Where only a bound is given, the exact number is not on record here.

Experiment [1] addresses T1, SARS-CoV-2 M^pro (Severe acute respiratory syndrome coronavirus 2, UniProt P0DTD1). Put plainly: Protein-observed M^pro assay (SPE-MS), covalent modification. The experiment is classed as binding. Conditions: M^pro 2.0 μM, inhibitor 11 or 33 μM, 45 min. The procedure: Selected compounds were tested for reaction with M^pro using protein-observed MS to inform on their mechanism of inhibition (Figure 2). Initially, M^pro was incubated with a ∼6-fold excess of the penicillin sulfone ester for 45 min and then analyzed by MS. […] When the inhibitor concentration was increased to ∼17-fold to account for the possibility of modifying all 12 M^pro cysteine or other residues, only low levels of a second covalent M^pro modification by the inhibitors were observed (Figure 2A–C). No evidence for fragmentation of the inhibitors once bound to M^pro was accrued.
Solutions of the inhibitors (100% DMSO) were dry-dispensed across 384-well polypropylene assay plates (Greiner) (for 11 or 33 μM top concentrations) using an ECHO 550 acoustic dispenser (Labcyte). DMSO was used as a negative control. Each reaction was performed in technical duplicates. The enzyme mixture (50 μL/well), containing M^pro (2.0 μM) in buffer (20 mM HEPES, pH 7.5), was dispensed across the penicillin-containing 384-well assay plates with a multidrop dispenser (Thermo Fischer Scientific). The reaction mixture was incubated for 45 min at 20 °C under an ambient atmosphere prior to analysis by SPE-MS.
MS analyses were performed using a RapidFire RF 365 high-throughput sampling robot (Agilent) attached to an iFunnel Agilent 6550 accurate mass Q-TOF mass spectrometer using a C4 cartridge and the same parameters as described above, with the exception of the gas temperature that was reduced to 225 °C. Protein spectra were deconvoluted for the m/z range 850–1350 Da, with a resolution of 2 Da and with a 10–60 kDa cutoff using the MaxEnt1 function in Agilent MassHunter Version 7. The deconvoluted files were extracted as csv files, sorted using Enthought Canopy GUI, and normalized and plotted using GraphPad Prism 9.

Experiment [2] addresses T1, SARS-CoV-2 M^pro. In words: biochemical. The experiment is classed as biochemical. To be noted: for M^pro inhibition, result in words: SPE-MS inhibition assay.
Setting [3] is: Table 1, M^pro […], 37mer substrate 2.0 μM, 15 min preincubation, mean ± SD, n ≥ 2, read-out: IC50.
Setting [4] is: read-out: IC50 [μM] using SPE-MS (37mer peptide).
Setting [5] is: Table S2, M^pro 0.15 μM, 37mer substrate peptide 2.0 μM, mean ± SD, n ≥ 2, read-out: IC50 [μM] using SPE-MS (37mer peptide).
Where [6] appears, read: Table 2, M^pro […], 37mer substrate 2.0 μM, mean ± SD, n ≥ 2, read-out: IC50.
[7] abbreviates: Table 3, M^pro […], 37mer substrate 2.0 μM, mean ± SD, n ≥ 2, read-out: IC50.

In the case of `O=c1[nH]sc2ccccc12` [BIT, benzoisothiazolinone, reference compound], the “covalent modification of M^pro by protein-observed MS” value (shortened to “covalent modification of M^pro”) on SARS-CoV-2 M^pro [1] is “non-selectively undergoes covalent”.
As for `CC1(C)S[C@@H]2[C@H](NC(=O)COc3ccccc3)C(=O)N2[C@H]1C(=O)O` [Compound 12, penicillin V, reference compound], at SARS-CoV-2 M^pro [2] (setting [3]), the IC50 is greater than 50 µM.
Turning to `CC1(C)S[C@@H]2[C@H](NC(=O)COc3ccccc3)C(=O)N2[C@H]1C(=O)OCc1ccccc1` [Compound 13], on SARS-CoV-2 M^pro [2] (setting [3]), the IC50 was greater than 50 µM.
For `CC1(C)[C@H](C(=O)OCc2ccccc2)N2C(=O)[C@@H](NC(=O)COc3ccccc3)C[C@H]2S1(=O)=O` [Compound 17], the “covalent modification of M^pro” value on SARS-CoV-2 M^pro [1] is listed as “appears to inhibit M^pro via a different mechanism”.
As to `CC1(C)S[C@@H]2[C@H](NC(=O)COc3ccccc3)C(=O)N2[C@H]1C(=O)OCc1ccccc1F` [Compound 19a], on SARS-CoV-2 M^pro [2] (setting [4]), the IC50 stood at 47.7 ± 6.8 µM.
Turning to `CC1(C)S[C@@H]2[C@H](NC(=O)COc3ccccc3)C(=O)N2[C@H]1C(=O)OCc1ccc(F)cc1` [Compound 19c], the half-maximal inhibitory concentration (IC50) at SARS-CoV-2 M^pro [2] (setting [4]) is greater than 50 µM.
For `CC1(C)S[C@@H]2[C@H](NC(=O)COc3ccccc3)C(=O)N2[C@H]1C(=O)OCc1cc(F)cc(F)c1` [Compound 19d], the IC50 at SARS-CoV-2 M^pro [2] (setting [5]) is greater than 50 µM.
On to `CC1(C)S[C@@H]2[C@H](NC(=O)COc3ccccc3)C(=O)N2[C@H]1C(=O)OCc1ccc(F)cc1F` [Compound 19e], for which, on SARS-CoV-2 M^pro [2] (setting [5]), the IC50 was greater than 50 µM.
In the case of `CC1(C)S[C@@H]2[C@H](NC(=O)COc3ccccc3)C(=O)N2[C@H]1C(=O)OCc1c(F)cc(F)cc1F` [Compound 19g], the concentration for half-maximal inhibition (IC50) at SARS-CoV-2 M^pro [2] (setting [5]) is greater than 50 µM.
For the compound `COc1ccc(COC(=O)[C@@H]2N3C(=O)[C@@H](NC(=O)COc4ccccc4)[C@H]3SC2(C)C)cc1` [Compound 19k], the IC50 at SARS-CoV-2 M^pro [2] (setting [5]) was 45.8 ± 11 µM.
For `CC1(C)[C@H](C(=O)OCc2ccccc2F)N2C(=O)[C@@H](NC(=O)COc3ccccc3)[C@H]2S1(=O)=O` [Compound 20a], the “covalent modification of M^pro” value at SARS-CoV-2 M^pro [1] is “covalent reaction with Cys145”. In addition, on SARS-CoV-2 M^pro [2] (setting [6]), the IC50 is 5.8 ± 2 µM.
As for `CC1(C)[C@H](C(=O)OCc2cccc(F)c2)N2C(=O)[C@@H](NC(=O)COc3ccccc3)[C@H]2S1(=O)=O` [Compound 20b], at SARS-CoV-2 M^pro [2] (setting [6]), the IC50 was 9.2 ± 3.7 µM.
`CC1(C)[C@H](C(=O)OCc2ccc(F)cc2)N2C(=O)[C@@H](NC(=O)COc3ccccc3)[C@H]2S1(=O)=O` [Compound 20c]: the “covalent modification of M^pro” value at SARS-CoV-2 M^pro [1] is on record as “covalent reaction with Cys145”. The 50% inhibitory concentration (IC50) on SARS-CoV-2 M^pro [2] (setting [6]) was found to be 7.4 ± 2.3 µM.
For the compound `CC1(C)[C@H](C(=O)OCc2cc(F)c(F)c(F)c2)N2C(=O)[C@@H](NC(=O)COc3ccccc3)[C@H]2S1(=O)=O` [Compound 20f], the IC50 on SARS-CoV-2 M^pro [2] (setting [6]) was greater than 50 µM.
On to `CC1(C)[C@H](C(=O)OCc2cc(C(F)(F)F)cc(C(F)(F)F)c2)N2C(=O)[C@@H](NC(=O)COc3ccccc3)[C@H]2S1(=O)=O` [Compound 20h], for which the “M^pro inhibition, result in words” value on SARS-CoV-2 M^pro [2] was “inhibited M^pro”. For the same compound, at SARS-CoV-2 M^pro [2] (setting [6]), the IC50 was determined as 35.3 ± 2.2 µM.
Regarding `CC1(C)[C@H](C(=O)OCc2cccc([N+](=O)[O-])c2)N2C(=O)[C@@H](NC(=O)COc3ccccc3)[C@H]2S1(=O)=O` [Compound 20i], the “M^pro inhibition, result in words” value at SARS-CoV-2 M^pro [2] is given as “inhibited M^pro”. At SARS-CoV-2 M^pro [2] (setting [6]), the IC50 worked out at 13.3 ± 5.3 µM.
For `CC1(C)[C@H](C(=O)OCc2ccc([N+](=O)[O-])cc2)N2C(=O)[C@@H](NC(=O)COc3ccccc3)[C@H]2S1(=O)=O` [Compound 20j, penicillin V sulfone para-nitrobenzyl ester], on SARS-CoV-2 M^pro [2], the “M^pro inhibition, result in words” value was “do not, at least efficiently, inhibit M^pro”. The 50% inhibitory concentration (IC50) at SARS-CoV-2 M^pro [2] (setting [6]) was greater than 50 µM.
On to `COc1ccc(COC(=O)[C@@H]2N3C(=O)[C@@H](NC(=O)COc4ccccc4)[C@H]3S(=O)(=O)C2(C)C)cc1` [Compound 20k], for which the “M^pro inhibition, result in words” value on SARS-CoV-2 M^pro [2] is reported as “do not, at least efficiently, inhibit M^pro”. Moreover, on SARS-CoV-2 M^pro [2] (setting [6]), the IC50 is 31.1 ± 13.9 µM.
For the compound `CC1(C)[C@H](C(=O)OCc2ccc3ccccc3c2)N2C(=O)[C@@H](NC(=O)COc3ccccc3)[C@H]2S1(=O)=O` [Compound 20l], the “M^pro inhibition, result in words” value at SARS-CoV-2 M^pro [2] is “do not, at least efficiently, inhibit M^pro”. Moreover, on SARS-CoV-2 M^pro [2] (setting [6]), the IC50 was greater than 50 µM.
On to `CC1(C)[C@H](C(=O)OCc2ccc(C(F)(F)F)o2)N2C(=O)[C@@H](NC(=O)COc3ccccc3)[C@H]2S1(=O)=O` [Compound 20m], for which the “M^pro inhibition, result in words” value on SARS-CoV-2 M^pro [2] was “inhibit M^pro, albeit with slightly reduced potency compared to 10”. Moreover, the half-maximal inhibitory concentration (IC50) on SARS-CoV-2 M^pro [2] (setting [6]) is 10.2 ± 2.2 µM.
With `Cc1cc(COC(=O)[C@@H]2N3C(=O)[C@@H](NC(=O)COc4ccccc4)[C@H]3S(=O)(=O)C2(C)C)no1` [Compound 20n], on SARS-CoV-2 M^pro [2], the “M^pro inhibition, result in words” value is listed as “inhibit M^pro, albeit with slightly reduced potency compared to 10”. Moreover, the IC50 at SARS-CoV-2 M^pro [2] (Table 2, M^pro 0.15 μM, 37mer substrate 2.0 μM, mean ± SD, n ≥ 2, read-out: IC50) was 9 ± 1.3 µM.
With `COC(=O)[C@@H]1N2C(=O)[C@@H](NC(=O)COc3ccccc3)[C@H]2S(=O)(=O)C1(C)C` [Compound 20o], on SARS-CoV-2 M^pro [2] (setting [6]), the IC50 stood at 7.9 ± 1.4 µM.
For the compound `CCOC(=O)[C@@H]1N2C(=O)[C@@H](NC(=O)COc3ccccc3)[C@H]2S(=O)(=O)C1(C)C` [Compound 20p], at SARS-CoV-2 M^pro [1], the “covalent modification of M^pro” value is given as “covalent reaction with Cys145”. Also, at SARS-CoV-2 M^pro [2] (setting [6]), the IC50 was 5.2 ± 0.6 µM.
Turning to `CC1(C)[C@H](C(=O)OCC#N)N2C(=O)[C@@H](NC(=O)COc3ccccc3)[C@H]2S1(=O)=O` [Compound 20r], the IC50 at SARS-CoV-2 M^pro [2] (setting [6]) was determined as 9.7 ± 3.3 µM.
Consider `CC1(C)[C@H](C(=O)OCc2ccccc2)N2C(=O)[C@@H](NC(=O)CNC(=O)c3ccccc3)[C@H]2S1(=O)=O` [Compound 25d], for which the IC50 on SARS-CoV-2 M^pro [2] (setting [7]) is greater than 50 µM.
For the compound `CC1(C)[C@H](C(=O)OCc2ccccc2)N2C(=O)[C@@H](NC(=O)CNC(=O)OCc3ccccc3)[C@H]2S1(=O)=O` [Compound 25e], the 50% inhibitory concentration (IC50) at SARS-CoV-2 M^pro [2] (setting [7]) is greater than 50 µM.
Take `CC(C)C[C@H](NC(=O)OCc1ccccc1)C(=O)N[C@@H]1C(=O)N2[C@@H](C(=O)OCc3ccccc3)C(C)(C)S(=O)(=O)[C@H]12` [Compound 25f]: at SARS-CoV-2 M^pro [2] (setting [7]), the IC50 was greater than 50 µM.
Turning to `CC1(C)[C@H](C(=O)OCc2ccccc2)N2C(=O)[C@@H](NC(=O)COc3c(F)c(F)c(F)c(F)c3F)[C@H]2S1(=O)=O` [Compound 25h], the “M^pro inhibition, result in words” value on SARS-CoV-2 M^pro [2] was “did not alter M^pro inhibition substantially”. Further, the IC50 on SARS-CoV-2 M^pro [2] (setting [7]) was determined as 5.3 ± 3.3 µM.
For `CC(Oc1ccccc1)C(=O)N[C@@H]1C(=O)N2[C@@H](C(=O)OCc3ccccc3)C(C)(C)S(=O)(=O)[C@H]12` (stereo partly shown) [Compound 25i], on SARS-CoV-2 M^pro [2], the “M^pro inhibition, result in words” value is “substantially reduced inhibition”. In addition, the 50% inhibitory concentration (IC50) on SARS-CoV-2 M^pro [2] (setting [7]) is greater than 50 µM.
Taken in the same sequence, the figures for `CC(Oc1ccccc1)C(=O)N[C@@H]1C(=O)N2[C@@H](C(=O)OCc3ccc(F)cc3)C(C)(C)S(=O)(=O)[C@H]12` (stereo partly shown) [Compound 25j] were “substantially reduced inhibition” and greater than 50 µM.
Consider `CC1(C)[C@H](C(=O)OCc2ccccc2)N2C(=O)[C@@H](NC(=O)COC3CCCCC3)[C@H]2S1(=O)=O` [Compound 25m], for which the “covalent modification of M^pro” value on SARS-CoV-2 M^pro [1] is on record as “covalent reaction with Cys145”.
In the case of `CC1(C)[C@H](C(=O)OCc2ccc([N+](=O)[O-])cc2)N2C(=O)C(Br)(Br)[C@H]2S1(=O)=O` [Compound 31, 6,6-dibromopenicillanic acid sulfone para-nitrobenzyl ester], the “covalent modification of M^pro” value at SARS-CoV-2 M^pro [1] is on record as “initial covalent M^pro binding is followed by rapid subsequent reaction to give new species”.
As to `CC1(C)[C@H](C(=O)OCc2ccccc2)N2C(=O)C[C@H]2S1(=O)=O` [Compound 34], the half-maximal inhibitory concentration (IC50) at SARS-CoV-2 M^pro [2] (Table 4, M^pro […], 37mer substrate 2.0 μM, mean ± SD, n ≥ 2, read-out: IC50) is greater than 50 µM.

As usually defined, the IC50 is the concentration at which inhibition is half-maximal.
